{"source": "patent US4182770A", "about": "“Alcohol deterrent” (priority 1976, dated 1980)", "key": {"[1]": {"settings": "disulfiram, cited from earlier work"}, "important enzyme systems [2]": {"tested_on": "important enzyme systems", "settings": "disulfiram; cited from earlier work"}, "[3]": {"tested_on": "acetaldehyde content of the blood", "experiment": "Acetaldehyde content of the blood after the consumption of alcohol", "assay_type": "in vivo", "source_text": "(§1) In contrast, important enzyme systems are inhibited by use of disulfiram."}, "[4]": {"tested_on": "aversion to alcohol in humans", "experiment": "Alcohol withdrawal/aversion treatment in patients (case histories)", "assay_type": "in vivo", "protocol": "In a particularly preferred mode of administration, tablets or dragees containing about 800 mg. of I are used. As an example of its use, after at least 12 hours of alcohol abstention, a half tablet (400 mg.) can be given in the morning before eating, and another half on the next day.\n22 Men and 5 women were treated with the new agent I. The youngest patient was 22 and the oldest 68. The average age was 44 years. After the first administration (400 mg., twice), as described above, the dosage consisted of a single oral administration of 800 mg. per week. The highest total dosage amounted to 67 g. of I. With this, the patient could be protected against the influence of alcohol for 84 weeks.\nIn assessment of success, 5 cases are to be discounted from the total of 27 I treatments. […] Thus, 22 cases remain which can be considered as I treatments. In 12 of these cases, the withdrawal treatment was successful; in three cases questionable; and 7 cases without success. […] After taking 11 g. of I and more (corresponding to an active level period of over 14 weeks), 8 successful cases were counted and two had questionable success. Below 6 g. of I (corresponding to an active level of not more than 8 weeks), there were seven failures; one questionable case and only 2 successful withdrawals."}, "[5]": {"experiment": "Half-life time of the active material", "settings": "in vivo"}, "important enzyme systems [6]": {"tested_on": "important enzyme systems", "experiment": "Inhibition of important enzyme systems", "assay_type": "biochemical", "settings": "compound I", "source_text": "as §1"}, "[7]": {"experiment": "Critical examinations for possible damages (clinical laboratory and blood pressure determinations)", "assay_type": "in vivo, humans", "settings": "bilirubin in the blood", "source_text": "In addition to the treatment with I, critical examinations for possible damages were undertaken. […] However, this observation probably only applies indirectly and exclusively to alcohol-toxic liver damages because toxic alcohol which was no longer inhibited, no longer acted upon the liver."}, "trypanosomes": {"tested_on": "trypanosomes", "settings": "known from P 16 20 043 / GB 1,133,408; cited from earlier work"}, "[8]": {"experiment": "Side effects / tolerability on administration", "assay_type": "in vivo, humans", "source_text": "It can even appear upon merely smelling the atmosphere of a barroom. […] However, in comparison with the known severe results of a marked abuse of alcohol, these side effects are negligible."}, "[9]": {"settings": "below 6 g. of I (active level of not more than 8 weeks)"}, "[10]": {"settings": "after administration of I, humans"}}, "note": "Entries after “also recorded” stand apart in the source; their conditions may differ. Read-outs that look alike come from different tables or passages of the source.", "data": [{"smiles": "CCN(CC)C(=S)SSC(=S)N(CC)CC", "note": "[disulfiram]", "values": [{"measurement": "side effects", "setting": "[1]; orally administered", "result": "several undesirable side effects"}, {"measurement": "contraindication", "setting": "[1]; inter alia diabetes", "result": "contraindicated by, inter alia, diabetes"}, {"measurement": "inhibition of important enzyme systems", "setting": "important enzyme systems [2]", "result": "inhibited"}]}, {"smiles": "Cc1nc([N+](=O)[O-])cn1-c1ccc([N+](=O)[O-])cc1", "note": "[compound I, 1-(4-nitrophenyl)-2-methyl-4-nitroimidazole]", "values": [{"measurement": "acetaldehyde content of the blood", "setting": "[3]", "result": "increase"}, {"measurement": "successful cases", "setting": "[4]; 11 g. of I and more (active level period of over 14 weeks)", "result": 8, "unit": "cases"}, {"measurement": "correlation of success with period of the withdrawal treatment", "setting": "[4]; 22 evaluable cases", "result": "clearly correlated"}, {"measurement": "outcome of treatment", "setting": "[4]; Example 1: champagne cellerman, total dosage 67 g., first treatment from May 1972", "result": "the patient behaved normally and worked regularly"}, {"measurement": "outcome of renewed treatment", "setting": "[4]; Example 1: treatment begun again after relapse in May 1974, up to January 1975", "result": "same good success"}, {"measurement": "effect of alcohol after discontinuation of treatment", "setting": "[4]; Example 2: one month after discontinuation (treated November 1973 to February 1974)", "result": "throbbing headache caused by alcohol"}, {"measurement": "outcome of treatment", "setting": "[4]; Example 2: storekeeper, total dosage 57 g., since April 1974, relatively regular taking of tablets", "result": "normal, regular work"}, {"measurement": "outcome of treatment", "setting": "[4]; Example 3: total dosage 37 g., after renewed treatment November 1973 to January 1975", "result": "no alcohol"}, {"measurement": "outcome of treatment", "setting": "[4]; Example 4: immigrant worker, total dosage 25 g., statement of spouse", "result": "successful breaking of the habit"}, {"measurement": "alcohol consumption since the end of the treatment", "setting": "[4]; Example 4: total dosage 25 g., according to statements of the wife", "result": "only had an occassional 1-2 glasses of wine"}, {"measurement": "outcome of treatment", "setting": "[4]; Example 5: employee, total dosage 17 g., after treatment September 1974 to February 1975", "result": "alcohol-free"}, {"measurement": "revulsion against alcohol", "setting": "[4]; after the administration of I, humans", "result": "a pronounced revulsion against alcohol is produced; also recorded: causes an aversion to alcohol in humans"}, {"measurement": "failures", "setting": "[4]; [9]", "result": "seven"}, {"measurement": "questionable case", "setting": "[4]; [9]", "result": "one"}, {"measurement": "successful withdrawals", "setting": "[4]; [9]", "result": 2}, {"measurement": "patient protected against the influence of alcohol, duration", "setting": "[4]; highest total dosage 67 g., 400 mg. twice, then oral 800 mg. per week", "result": 84, "unit": "weeks"}, {"measurement": "withdrawal treatment questionable", "setting": "[4]; of 22 evaluable cases", "result": "three"}, {"measurement": "withdrawal treatment successful", "setting": "[4]; of 22 evaluable cases", "result": 12, "unit": "cases"}, {"measurement": "withdrawal treatment without success", "setting": "[4]; of 22 evaluable cases", "result": 7, "unit": "cases"}, {"measurement": "half-life", "setting": "[5]", "result": "> 40", "unit": "h"}, {"measurement": "inhibition of important enzyme systems", "setting": "important enzyme systems [6]", "result": "No such inhibition occurs"}, {"measurement": "liver function tests", "setting": "[7]; γ-GT and γ-globulins, probably indirect, alcohol-toxic liver damages only", "result": "clear normalizations"}, {"measurement": "harmful side effects in laboratory examinations", "setting": "[7]; lymphocytes, GT, GOT, GPT, total protein, β-globulins, γ-globulins, cholesterol, RR systolic", "result": "no indications of harmful side effects"}, {"measurement": "effectiveness against disease-causing trypanosomes", "setting": "trypanosomes", "result": "effectiveness"}, {"measurement": "compatibility", "setting": "[8]; Example 1: after first 400 mg.", "result": "Good compatibility"}, {"measurement": "severity of side effects", "setting": "[8]; [10]", "result": "generally minor"}, {"measurement": "side effects which occasionally appear", "setting": "[8]; [10]", "result": "tachycardia, flush-like skin reddenings, sickly feelings, headache and hangover"}]}]}
